Data on 25 molecules can be found in patent publication US9856279B2 (AGIOS PHARMACEUTICALS, INC, priority 2011, dated 2018).

The subject of test [1] is HT1080 cells. The experiment in a line: Cellular assay for IDH1m inhibitors: inhibition of 2-HG production (LC-MS, 48 hours) in HT1080 cells. Format: cell-based. To be noted: Homo sapiens, HT-1080; inhibition of 2-HG production, HT1080 cells; read-out: HT1080 IC50. The method, then:
Cells (e.g., HT1080 or U87MG) and are grown in T125 flasks in DMEM containing 10% FBS, 1× penicillin/streptomycin and 500 ug/mL G418. They are harvested by trypsin and seeded into 96 well white bottom plates at a density of 5000 cell/well in 100 ul/well in DMEM with 10% FBS. No cells are plates in columns 1 and 12. Cells are incubated overnight at 37° C. in 5% CO2. The next day compounds are made up at 2× concentration and 100 ul are added to each cell well. The final concentration of DMSO is 0.2% and the DMSO control wells are plated in row G. The plates are then placed in the incubator for 48 hours. At 48 hours, 100 μl of media is removed from each well and analyzed by LC-MS for 2-HG concentrations. The cell plate is placed back in the incubator for another 24 hours. At 72 hours post compound addition, 10 mL/plate of Promega Cell Titer Glo reagent is thawed and mixed. The cell plate is removed from the incubator and allowed to equilibrate to room temperature. Then 100 ul of reagent is added to each well of media. The cell plate is then placed on an orbital shaker for 10 minutes and then allowed to sit at room temperature for 20 minutes. The plate is then read for luminescence with an integration time of 500 ms.
The IC50 for inhibition of 2-HG production (concentration of test compound to reduce 2HG production by 50% compared to control) in these two cell lines for various compounds of formula I is set forth in Table 4 above.

Test [2] deals with IDH1 R132H (Homo sapiens, UniProt O75874, R132H). Kind of test: Assay for IDH1 R132H inhibitors (NADPH/aKG, resazurin detection). The class given is biochemical. The settings on record: enzyme assay of Example 12; read-out: IDH1R132H IC50. In short, it runs like this: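 Read-out is resorufin fluorescence (Ex544/Em590) 5 min after adding a 30 μM resazurin detection mix. Before that, mutant enzyme (0.2 μg/ml in its mix) ran 50 min at room temperature with compound, 8 uM NADPH and 2 mM aKG (mix levels) in Tris pH 7.5 with NaCl, MgCl2, BSA.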
IDH1 R132H, sequence (O75874 whole entry R132H): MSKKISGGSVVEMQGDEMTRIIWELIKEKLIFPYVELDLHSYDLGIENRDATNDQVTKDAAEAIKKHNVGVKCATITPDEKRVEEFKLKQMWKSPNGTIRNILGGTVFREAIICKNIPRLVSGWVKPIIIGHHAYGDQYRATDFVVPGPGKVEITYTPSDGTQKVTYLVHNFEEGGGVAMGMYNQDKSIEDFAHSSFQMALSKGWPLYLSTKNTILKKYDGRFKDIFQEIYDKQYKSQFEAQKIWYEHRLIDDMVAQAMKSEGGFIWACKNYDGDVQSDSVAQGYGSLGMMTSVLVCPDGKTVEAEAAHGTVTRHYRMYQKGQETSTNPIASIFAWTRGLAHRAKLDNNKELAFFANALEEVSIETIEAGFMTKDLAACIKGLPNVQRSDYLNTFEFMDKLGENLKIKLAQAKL

Usually IC50 stands for the concentration needed to halve the response being measured.

In the case of `C=Cc1cc(-c2cc(C#N)c(N3CCN(C(=O)C4(O)CC4)[C@H](C)C3)nc2C2CC2)ccn1` [Compound 664, (R)-2-cyclopropyl-6-(4-(1-hydroxycyclopropanecarbonyl)-3-methylpiperazin-1-yl)-2′-vinyl-3,4′-bipyridine-5-carbonitrile], the half-maximal inhibitory concentration (IC50) in test [1] and in test [2] was less than 500 nM each time.

As for `C=Cc1cncc(-c2cc(C#N)c(N3CCN(C(=O)C4CC4)[C@H](C4CC4)C3)nc2C2CC2)n1` [Compound 515, (R)-2-(4-(cyclopropanecarbonyl)-3-cyclopropylpiperazin-1-yl)-6-cyclopropyl-5-(6-vinylpyrazin-2-yl)nicotinonitrile], the IC50 in test [1] was 1000 to 10000 nM; in test [2] it was 500 to 1000 nM.

`C=Cc1cc(-c2cc(C#N)c(N3CCN(C(=O)CCO)C(C)C3)nc2C2CC2)ccn1` (centres unmarked) [Compound 572]: the IC50 in test [1] and in test [2] was less than 500 nM throughout.

As for `CC(=O)N1CCN(c2nc(C3CC3)c(-c3cccc4cnccc34)cc2C#N)C[C@H]1C` [Compound 516, (R)-2-(4-acetyl-3-methylpiperazin-1-yl)-6-cyclopropyl-5-(isoquinolin-5-yl)nicotinonitrile], the IC50 is 500 to 1000 nM in test [1] and less than 500 nM in test [2].

For `C=Cc1cc(-c2cc(C#N)c(N3CCN(C(=O)CN4CCC4=O)[C@H](C4CC4)C3)nc2C2CC2)ccn1` [Compound 818], the half-maximal inhibitory concentration (IC50) in test [1] and in test [2] was less than 500 nM each time.

For `Cc1cc(-c2cc(C#N)c(N3CCN(C(=O)C4CC4)[C@H](C4CC4)C3)nc2C2CC2)c2ccncc2n1` [Compound 553, (R)-2-(4-(cyclopropanecarbonyl)-3-cyclopropylpiperazin-1-yl)-6-cyclopropyl-5-(2-methyl-1,7-naphthyridin-4-yl)nicotinonitrile], the IC50 in test [1] and in test [2] was less than 500 nM throughout.

Regarding `C=Cc1cc(-c2cc(C#N)c(N3CCN(C(=O)CCC(OC)OC)[C@H](C)C3)nc2C2CC2)ccn1` [Compound 606, (R)-2-cyclopropyl-6-(4-(4,4-dimethoxybutanoyl)-3-methylpiperazin-1-yl)-2′-vinyl-[3,4′-bipyridine]-5-carbonitrile], the IC50 in test [1] and in test [2] was less than 500 nM in each case.

As to `C=Cc1nc(-c2cc(C#N)c(N3CCN(C(=O)C4CC4)[C@H](C4CC4)C3)nc2C2CC2)c2ccccc2n1` [Compound 669, (R)-2-(4-(cyclopropanecarbonyl)-3-cyclopropylpiperazin-1-yl)-6-cyclopropyl-5-(2-vinylquinazolin-4-yl)nicotinonitrile], the half-maximal inhibitory concentration (IC50) in test [1] and in test [2] was less than 500 nM throughout.

As to `C=Cc1ncc(Cl)c(-c2cc(C#N)c(N3CCN(C(=O)C4CC4)[C@H](C4CC4)C3)nc2C2CC2)n1` [Compound 533, (R)-5-(5-chloro-2-vinylpyrimidin-4-yl)-2-(4-(cyclopropanecarbonyl)-3-cyclopropylpiperazin-1-yl)-6-cyclopropylnicotinonitrile], the IC50 in test [1] was 1000 to 10000 nM; in test [2], 500 to 1000 nM.

As for `C=Cc1ccnc(-c2cc(C#N)c(N3CCN(C(=O)CCOC)[C@H](C)C3)nc2C2CC2)c1` [Compound 596, (R)-2′-cyclopropyl-6′-(4-(3-methoxypropanoyl)-3-methylpiperazin-1-yl)-4-vinyl-2,3′-bipyridine-5′-carbonitrile], the IC50 in test [1] and in test [2] was less than 500 nM each time.

With `C=Cc1ccc(Nc2cc(C#N)c(N3CCN(C(=O)CCO)[C@H](C)C3)nc2C2CC2)cn1` [Compound 577, (R)-6-cyclopropyl-2-(4-(3-hydroxypropanoyl)-3-methylpiperazin-1-yl)-5-((6-vinylpyridin-3-yl)amino)nicotinonitrile], the half-inhibitory concentration (IC50) in test [1] and in test [2] was less than 500 nM each time.

Take `CCS(=O)(=O)N1CCN(c2cc(C#N)c(N3CCN(C(=O)CC(F)(F)F)[C@H](C4CC4)C3)nc2C2CC2)CC1` [Compound 559]: the concentration for half-maximal inhibition (IC50) in test [1] was 1000 to 10000 nM; in test [2], less than 500 nM.

On to `COCCC(=O)N1CCN(c2nc(C3CC3)c(Nc3ccnc(Cl)c3)cc2C#N)C[C@H]1C1CC1` [Compound 679, (R)-5-((2-chloropyridin-4-yl)amino)-6-cyclopropyl-2-(3-cyclopropyl-4-(3-methoxypropanoyl)piperazin-1-yl)nicotinonitrile], for which the IC50 in test [1] and in test [2] was less than 500 nM in each case.

Turning to `N#Cc1cc(Nc2ccnc(Cl)c2)c(C2CC2)nc1N1CCN(C(=O)CCO)[C@H](C2CC2)C1` [Compound 677, (R)-5-((2-chloropyridin-4-yl)amino)-6-cyclopropyl-2-(3-cyclopropyl-4-(3-hydroxypropanoyl)piperazin-1-yl)nicotinonitrile], the IC50 in test [1] and in test [2] was less than 500 nM each time.

With `C=Cc1ccnc(Nc2cc(C#N)c(N3CCN(C(=O)CC4CCC4)[C@H](C4CC4)C3)nc2C2CC2)c1` [Compound 817, (R)-2-(4-(2-cyclobutylacetyl)-3-cyclopropylpiperazin-1-yl)-6-cyclopropyl-5-((4-vinylpyridin-2-yl)amino)nicotinonitrile], the IC50 in test [1] and in test [2] was less than 500 nM each time.

Take `C=CC(=O)N1CCCC(c2cc(C#N)c(N3CCN(C(=O)C4CC4)[C@H](C)C3)nc2C2CC2)C1` (stereo partly drawn) [Compound 576, 5-(1-acryloylpiperidin-3-yl)-2-((R)-4-(cyclopropanecarbonyl)-3-methylpiperazin-1-yl)-6-cyclopropylnicotinonitrile]: the half-inhibitory concentration (IC50) in test [1] is less than 500 nM; in test [2], 500 to 1000 nM.

As for `C=Cc1cc(-c2cc(C#N)c(N3CCN(C(=O)CCOC)[C@H](C)C3)nc2C2CC2)cc(OC)n1` [Compound 622, (R)-2-cyclopropyl-2′-methoxy-6-(4-(3-methoxypropanoyl)-3-methylpiperazin-1-yl)-6′-vinyl-[3,4′-bipyridine]-5-carbonitrile], the IC50 is 1000 to 10000 nM in test [1] and 500 to 1000 nM in test [2].

`C=Cc1cc(Nc2c(C3CC3)nc(N3CCN(C(=O)CCOC)[C@H](C(C)C)C3)c(C#N)c2C)ccn1` [Compound 807, (R)-6-cyclopropyl-2-(3-isopropyl-4-(3-methoxypropanoyl)piperazin-1-yl)-4-methyl-5-((2-vinylpyridin-4-yl)amino)nicotinonitrile]: the half-maximal inhibitory concentration (IC50) in test [1] and in test [2] was less than 500 nM throughout.

`N#Cc1ccnc(Nc2cc(C#N)c(N3CCN(C(=O)C[C@H]4CCO4)[C@H](C4CC4)C3)nc2C2CC2)c1` [Compound 809, 5-(4-cyanopyridin-2-ylamino)-6-cyclopropyl-2-((R)-3-cyclopropyl-4-(2-((R)-oxetan-2-yl)acetyl)piperazin-1-yl)nicotinonitrile]: the IC50 in test [1] and in test [2] was less than 500 nM each time.

For the molecule `C=Cc1cc(-c2c(C3CC3)nc(N3CCN(C(=O)CC4CCC4)[C@H](C4CC4)C3)c(C#N)c2C)ccn1` [Compound 819, (R)-6-(4-(2-cyclobutylacetyl)-3-cyclopropylpiperazin-1-yl)-2-cyclopropyl-4-methyl-2′-vinyl-3,4′-bipyridine-5-carbonitrile], the 50% inhibitory concentration (IC50) in test [1] and in test [2] was less than 500 nM throughout.

In the case of `C=Cc1ccc(-c2cc(C#N)c(N3CCN(C(=O)CCOC)[C@H](C)C3)nc2C2CC2)cn1` [Compound 620, (R)-2-cyclopropyl-6-(4-(3-methoxypropanoyl)-3-methylpiperazin-1-yl)-6′-vinyl-3,3′-bipyridine-5-carbonitrile], the IC50 in test [1] and in test [2] was less than 500 nM in each case.

`N#Cc1cc(Nc2ccnc3ccccc23)c(C2CC2)nc1N1CCN(C(=O)CC(F)(F)F)[C@H](C2CC2)C1` [Compound 560, (R)-6-cyclopropyl-2-(3-cyclopropyl-4-(3,3,3-trifluoropropanoyl)piperazin-1-yl)-5-(quinolin-4-ylamino)nicotinonitrile]: the IC50 in test [1] was 1000 to 10000 nM; in test [2], less than 500 nM.

For the molecule `N#Cc1cc(-c2cccc3c(O)nccc23)c(C2CC2)nc1N1CCN(C(=O)C2CC2)[C@H](C2CC2)C1` [Compound 566, (R)-2-(4-(cyclopropanecarbonyl)-3-cyclopropylpiperazin-1-yl)-6-cyclopropyl-5-(1-hydroxyisoquinolin-5-yl)nicotinonitrile], the IC50 was 500 to 1000 nM in test [1] and less than 500 nM in test [2].

For `C=Cc1cc(-c2cc(C#N)c(N3CCN(C(=O)C[C@H]4CCCO4)[C@H](C4CC4)C3)nc2C2CC2)ccn1` [Compound 822], the IC50 in test [1] and in test [2] was less than 500 nM in each case.

On to `C[C@@H]1CN(c2nc(C3CC3)c(Nc3ccc(C#N)nc3)cc2C#N)CCN1C(=O)CCO` [Compound 582, (R)-5-((5-cyano-2-cyclopropyl-6-(4-(3-hydroxypropanoyl)-3-methylpiperazin-1-yl)pyridin-3-yl)amino)picolinonitrile], for which the IC50 in test [1] is 1000 to 10000 nM; in test [2] it was less than 500 nM.
